In US20170356005A1, “NON-VIRAL IPSCS INDUCING COMPOSITION AND KITS” (Guangzhou Biocare Biotechnology Co., Ltd, priority 2016, published 2017):
Counter-ions that a name gives are not always drawn.

Tested on: urine-derived renal epithelial cells
Test: AP staining of iPSC clones after induction culture (efficiency of AP positive clones)
Format: cell-based, human
Conditions: Example 5, FIG. 11-12
Description: 1. The procedure for AP staining is as follows,
a) Aspirate and remove the growth medium from the cultures to be stained when the cell culture is finished, wash the culture with 1×PBS one time; Fix the cells with 4% paraformaldehyde at room temperature for 2 min;
b) Aspirate the fixing solution, wash the culture with 1×TBST for 3 times; Balance with AP buffer at room temperature for 5 min;
c) Chromogenic reaction was performed with AP chromogenic reagent at room temperature in dark for 15 min (5-15 min, terminated when the color of clones became darker and without background, increase the reaction time appropriately if the clones were not stained). The chromogenic reagent was aspirated, cells were washed with 1×PBS for two times, covered with an appropriate amount of 1×PBS, observed and counted under a microscope.
Alkaline phosphatase (AP) is a phosphomonoesterase. The alkaline phosphatase in the cytoplasm can hydrolyze sodium naphthol phosphate to produce α-naphthol in alkaline environments. The latter reacts with a stable azo salt and presents a deep purple color, which the presence of alkaline phosphatase and the abundance of expression could be determined accordingly. Alkaline phosphatase is highly expressed in undifferentiated pluripotent stem cells, and the activity of alkaline phosphatase in the differentiated pluripotent stem cells is decreased. Therefore, whether the cells are clones of iPSCs could be determined by alkaline phosphatase staining (AP staining). And, thus the efficiency of iPSCs production can be easily judged according to the efficiency of AP positive clones.
In Example 1-2 and 4-6, the efficiency of AP positive clones was determined based on the number of cells in each group after electroporation transformation, ie the efficiency of AP positive clones=number of AP positive clones/number of passaged cells per well after electroporation in each group;
In Example 3 and 7-10, the efficiency of AP positive clones was determined based on the total number of cells after electroporation transformation, i.e. the efficiency of AP positive clones=number of AP positive clones/total number of cells after electroporation transformation.
a) Electroporation transformation: The recombinant plasmids obtained in step 1) were added into the culture of renal epithelial cells after digestion with trypsin, and then transferred into the renal epithelial cells. […]
b) Induction culture: 1-3 days after Step 1), or when the cells reached a confluence of 30% or more, the culture medium of pluripotent stem cell was used to continue induction culture. About 15-30 days after the mature of iPSCs clones, the positive clones of iPSCs were identified by AP staining, and the efficiency of AP positive clones was calculated accordingly;

SMILES	preferable concentration (AP staining) [µM]
Cc1c[nH]c(-c2cnc(NCCNc3ccc(C#N)cn3)nc2-c2ccc(Cl)cc2Cl)n1 [CHIR-99021]	3
O=C(NOC[C@H](O)CO)c1ccc(F)c(F)c1Nc1ccc(I)cc1F [PD0325901]	0.5
CCCC(=O)[O-].[Na+] [sodium butyrate, Sodium Butyrate]	250
N[C@@H]1C[C@H]1c1ccccc1 [tranylcypromine hydrochloride, Tranylcypromine hydrochloride]	2
